Residues, ends and D or L forms follow the SMILES beside them. No end group written: not given here. *: point of attachment. Benzoyl(3-Ph) = O=C(c1cccc(-c2ccccc2)c1)*; Benzoyl(4-Ph) = O=C(c1ccc(-c2ccccc2)cc1)*; Benzoyl(2-Ph) = O=C(c1ccccc1-c1ccccc1)*; Benzoyl(4-OMe) = COc1ccc(C(=O)*)cc1; 2Naphthoyl = O=C(c1ccc2ccccc2c1)*; Bz = O=C(c1ccccc1)*
Experiments:
[1] = tested on: lung cancer cell line H1299; assay: CTG assay, cell viability suppression in lung cancer cell line H1299; format: cell-based; conditions: H1299, 100 μM, 48 hours
Experimental: (§1) After 48 hours, a CellTiter-Glo® (Promega Co., USA) reagent was mixed in the same amount as the cell culture medium and allowed to react in an orbital shaker for 2 minutes. After reaction at room temperature for 10 minutes, the luminescence signal was measured using a luminometer (GloMax®, Promega).

[2] = tested on: blood cancer cell line Jurkat clone E6-1; assay: MTT assay, proliferation suppression in blood cancer cell line Jurkat clone E6-1; format: cell-based; conditions: Jurkat clone E6-1, 10 μM, 48 hours
Experimental: (§2) After 72 hours, 10 μl of a CellTiter-96® (Promega Co., USA) reagent was added to each well and allowed to react at 5% CO2 and 37° C. After 3 hours, absorbance was measured at 490 nm using a spectrophotometer (SPECTROstar^Nano, BMG).
As the blood cancer cell line, Jurkat clone E6-1 was used.
Jurkat clone E6-1 was treated with 4-PhPh-[…], Ac-[…], 3-PhPh-[…], 4-MeOPh-[…], 2-PhPh-[…], Ph-[…], and Naphthyl-[…] at a concentration of 10 μM, respectively, and cell proliferation suppression effects were compared after 48 hours.

[3] = tested on: breast cancer cell line HCC1937; assay: MTT assay, proliferation suppression in breast cancer cell line HCC1937; format: cell-based; conditions: HCC1937, 100 μM, 72 hours
Experimental: as §2
HCC1937 was used as the breast cancer cell line.
The HCC1937 cell line was treated with Ac-[…], 3-PhPh-[…], 4-MeOPh-[…], 2-PhPh-[…], Ph-[…], and Naphthyl-[…] at a concentration of 100 μM, respectively, and cell proliferation suppression effects were compared after 72 hours.

[4] = tested on: colorectal cancer cell line HT29; assay: Cell proliferation suppression in colorectal cancer cell line HT29; format: cell-based; conditions: HT29, 50 μM, 72 hours
Experimental: as §1, §2

[5] = tested on: lung cancer cell line H1975; assay: CTG assay, cell viability suppression in lung cancer cell line H1975; format: cell-based; conditions: H1975, 10 μM, 72 hours
Experimental: as §1

[6] = tested on: pancreatic cancer cell line CFPAC-1; assay: MTT assay, cell viability suppression in pancreatic cancer cell line CFPAC-1; format: cell-based; conditions: CFPAC-1, 10 μM, 72 hours
Experimental: as §2

[7] = tested on: breast cancer cell line MDA-MB-231; assay: CTG assay, activity of breast cancer cells MDA-MB-231 (amount of ATP); format: cell-based; conditions: MDA-MB-231, 100 μM, 48 hours
Experimental: as §1

in vitro = conditions: human
[8] = tested on: lung cancer cell line H820 tumors; assay: Tumor growth suppression, nude mice inoculated with lung cancer cell line H820; format: in vivo; conditions: H820 in nude mice, 10 mpk, tail vein, 5 times at 3-day intervals and 5 times at 2-day intervals
Experimental: 200 μl of H820 cells were inoculated once by subcutaneous injection into the flanks of mice at a concentration of 5×10^6 cells/mouse at 1:1 with Matrigel. After it was confirmed that the volume of a tumor mass formed after the inoculation reached 70 to 130 mm^3, random group separation was performed. […]

[9] = tested on: CT26 cells induced to express CAGE gene; assay: Tumor growth suppression, mice inoculated with CT26 cells induced to express CAGE gene; format: in vivo; conditions: CT26 expressing CAGE, 10 mpk tail vein, 7 times at 2-day intervals; for tumor growth suppression compared to the AQTGTGKT administration group: day 14; for tumor volume on day 14 (average): day after 7th administration
Experimental: (§3) 200 μl of CT26 cells, which were induced to express CAGE gene, were inoculated once by subcutaneous injection into the flanks of mice at a concentration of 1×10^6 cells/mouse. After it was confirmed that the volume of a tumor mass formed after the inoculation reached 70 mm^3, random group separation was performed. A test material was injected to the tail vein 7 times at 2-day intervals at a concentration of 10 mpk, and the start date of administration was set as day 1. The tumor volume was calculated twice a week by measuring the width and length and at the same time, the mouse body weight was measured.

[10] = Stability in human blood (residual amount over time)
[11] = tested on: breast cancer cell line HCC1806 tumors; assay: Tumor growth suppression, mice inoculated with breast cancer cell line HCC1806; format: in vivo, immunodeficient mice; conditions: HCC1806, 10 mpk tail vein, 7 times at 2-day intervals; for tumor volume on day 15 (average): 2 days after last administration; for tumor growth suppression compared to the tumor volume of the AQTGTGKT group: day 15
Experimental: as §3, with “a breast cancer cell line, HCC1806” for “CT26”, “cells,” for “cells, which were induced to express CAGE gene,”, “5×10^6” for “1×10^6”, “70 to 130” for “70”

[12] = tested on: lung cancer cell line H820; assay: Cell viability suppression in lung cancer (papillary adenocarcinoma) cell line H820; format: cell-based; conditions: H820, 10 μM, 72 hours
Experimental: as §1, §2

[13] = tested on: H1975 lung cancer cells tumors; assay: Tumor growth suppression, nude mice inoculated with H1975 lung cancer cells; format: in vivo; conditions: H1975 in nude mice, 10 mpk for 14 days
Experimental: 150 μl of H1975 cells were inoculated once by subcutaneous injection into the flanks of mice at a concentration of 4×10^6 cells/mouse. After it was confirmed that the volume of a tumor mass formed after the inoculation reached 70 to 130 mm^3, random group separation was performed. A test material was injected to the tail vein 5 times at 3-day intervals and 5 times at 2-day intervals.

| Molecule | cell viability suppression effect compared to the control (AQTGTGKT) [1] | suppression of proliferation of cells compared to the control (AQTGTGKT) [2] | suppression of proliferation of cells compared to the control (AQTGTGKT) [3] | cell proliferation suppression effect compared to the control (AQTGTGKT) [4] | cell viability suppression effect compared to the control (AQTGTGKT) [5] | cell viability suppression effect compared to the control (AQTGTGKT) [6] | reduction of activity of cells compared to the control (AQTGTGKT) [7] | half-life at 10 μM (in vitro) [min] | tumor growth suppression effect compared to the control (AQTGTGKT) [8] | tumor growth suppression compared to the AQTGTGKT administration group [9] | tumor volume on day 14 (average) [9] [mm^3] | half-life at 10 μM [10] [min] | tumor volume on day 15 (average) [11] [mm^3] | tumor growth suppression compared to the tumor volume of the AQTGTGKT group [11] | cell viability suppression effect compared to the control (AQTGTGKT) [12] | tumor growth reduction compared to the control (AQTGTGKT) [13] |
| --- | --- | --- | --- | --- | --- | --- | --- | --- | --- | --- | --- | --- | --- | --- | --- | --- |
| Ac-AQTGTGKT | 4.2% | ~7.9% | about 11.1% | 58% | about 16% |  |  |  |  |  |  |  |  |  |  |  |
| C[C@H](NC(=O)c1ccc(-c2ccccc2)cc1)C(=O)N[C@@H](CCC(N)=O)C(=O)N[C@H](C(=O)NCC(=O)N[C@H](C(=O)NCC(=O)N[C@@H](CCCCN)C(=O)N[C@H](C(=O)O)[C@@H](C)O)[C@@H](C)O)[C@@H](C)O ({Benzoyl(4-Ph)}-AQTGTGKT-OH) | about 10% | about 4.8% |  | about 8% |  | about 12% | about 30% | 47 to 105 |  |  |  |  |  |  |  |  |
| C[C@H](NC(=O)c1ccc2ccccc2c1)C(=O)N[C@@H](CCC(N)=O)C(=O)N[C@H](C(=O)NCC(=O)N[C@H](C(=O)NCC(=O)N[C@@H](CCCCN)C(=O)N[C@H](C(=O)O)[C@@H](C)O)[C@@H](C)O)[C@@H](C)O (2Naphthoyl-AQTGTGKT-OH) | 14% | ~10.4% | ~9.5% | 58% |  | 3% |  | 47 to 105 | 26% | about 62.04% | 880.35 |  |  |  |  |  |
| C[C@H](NC(=O)c1ccccc1)C(=O)N[C@@H](CCC(N)=O)C(=O)N[C@H](C(=O)NCC(=O)N[C@H](C(=O)NCC(=O)N[C@@H](CCCCN)C(=O)N[C@H](C(=O)O)[C@@H](C)O)[C@@H](C)O)[C@@H](C)O (Bz-AQTGTGKT-OH) | 18% | ~10.2% | ~13.6% | 40% |  | 3% |  |  | 20% |  |  | 47 to 105 | 1133.80 | ~39.82% |  |  |
| AQTGTGKT [alanine-glutamine-threonine-glycine-threonine-glycine-lysine-threonine, reference compound] |  |  |  |  |  |  |  |  |  |  | 2573.07 | < 1 | 1884.17 |  |  |  |
| C[C@H](NC(=O)c1cccc(-c2ccccc2)c1)C(=O)N[C@@H](CCC(N)=O)C(=O)N[C@H](C(=O)NCC(=O)N[C@H](C(=O)NCC(=O)N[C@@H](CCCCN)C(=O)N[C@H](C(=O)O)[C@@H](C)O)[C@@H](C)O)[C@@H](C)O ({Benzoyl(3-Ph)}-AQTGTGKT-OH) | 15% | ~6.4% | ~17.1% | 59% | 33% | 2% |  | 47 to 105 | about 16.5% | about 65.79% | 880.35 |  | 944.70 | about 49.86% | about 12% | about 16.5% |
| COc1ccc(C(=O)N[C@@H](C)C(=O)N[C@@H](CCC(N)=O)C(=O)N[C@H](C(=O)NCC(=O)N[C@H](C(=O)NCC(=O)N[C@@H](CCCCN)C(=O)N[C@H](C(=O)O)[C@@H](C)O)[C@@H](C)O)[C@@H](C)O)cc1 ({Benzoyl(4-OMe)}-AQTGTGKT-OH) | 12% | ~4% | ~14.3% | 48% | 4% | 6% |  | 47 to 105 |  |  |  |  | 812.69 | ~56.86% | 10% |  |
| C[C@H](NC(=O)c1ccccc1-c1ccccc1)C(=O)N[C@@H](CCC(N)=O)C(=O)N[C@H](C(=O)NCC(=O)N[C@H](C(=O)NCC(=O)N[C@@H](CCCCN)C(=O)N[C@H](C(=O)O)[C@@H](C)O)[C@@H](C)O)[C@@H](C)O ({Benzoyl(2-Ph)}-AQTGTGKT-OH) | 20% | ~6.7% | ~15.9% | 7% | 3% |  |  | 47 to 105 | 27% |  |  |  |  |  |  |  |

Reference: patent publication US20230159587A1, “PHARMACEUTICAL COMPOSITION FOR PREVENTING OR TREATING CANCER” (L-BASE CO., LTD., priority 2021, published 2023)
